Test results reported in patent US20050148495A1, “Methods and materials including for treating acne” (priority 2003, published 2005).
≈ marks a conversion by molar mass, not a printed value. Like-named read-outs stand apart in the source and are kept apart here. Non-standard residues stand in square brackets, D forms with d. Residues, ends and D or L forms follow the SMILES beside them. d1Nal = N[C@H](Cc1cccc2ccccc12)C(=O)O

How the values were obtained:
Enterococcus hirae = Enterococcus hirae 9790
[1] = test system: guinea pigs, Crl:(HA)BR (Albino Hartley); assay: Guinea pig sensitization (maximization) test; format: in vivo
Description: A sensitization (maximization) study was performed to evaluate the potential of XMP.629 to elicit skin sensitization reactions, such as allergic contact dermatitis, in guinea pigs via intradermal injection and topical patch applications. Procedures for conducting dermal studies that determine the potential of substances to induce delayed contact hypersensitivity are well-known and are described, for example, in Magnusson, B. et al., Allergic Contact Dermatitis in the Guinea Pig, Charles C. Thomas Publishing, Springfield, Ill., 1970 and Klecak, G., “Test Methods for Allergic Contact Dermatitis in Animals”, Dermatoxicology, 5th Edition, Taylor & Francis Publishing, Washington D.C., pages 437-459, the disclosures of which are incorporated herein by reference. A total of forty two-month old guinea pigs, twenty male and twenty female, from the strain CrI:(HA)BR(Albino Hartley) were employed for the entire regimen of the sensitization study.
First, a preliminary range-finding test was conducted to determine the test concentration of XMP.629 to be used in the second test, induction phase intradermal injection and topical patch application tests. The range-finding test was performed (i) intradermally on two guinea pigs (one male and one female) by injecting concentrations of 2, 4, 8, 16, and 20 mg/mL XMP.629; and (ii) topically on three guinea pigs (two males and one female) by administering patches containing concentrations of 5, 10, 15, and 20 mg/mL XMP.629. […] Topical patches were prepared by spreading a thick even layer of 0.4 mL of XMP.629 over a 2×2 cm of Whatman No.3 filter paper. Topical patches were applied to the torso of the guinea pig and covered by an overlapping plastic adhesive tape followed by additional wrapping tape. After a 24 hour exposure period, the patches were removed and the application sites were washed to removed any excess XMP.629 that may be present. […] Intradermal injection sites and topical application sites were evaluated using a sensitization grade rating. […] Each site could attain a maximum possible score of 3, as scored according to the rating listed below: • 0=No reaction • 1=Scattered mild erythema • 2=Moderate and diffuse erythema • 3=Intense erythema and edema
The second induction phase test was conducted as a two-stage operation with intradermal injections initially being administered followed one week later by exposure to a closed patch. […] Following a period of 24 and 48 hours, evaluations of the injection area were recorded. […] Dermal irritation scores of one or higher were recorded for doses of 8 mg/mL of XMP.629.
A third, challenge (maximization) test was performed two weeks (day 22) after initiation of the second, induction phase tests. […] Patches were sealed to the flanks for approximately 24 hours before observations were recorded.

[2] = test system: Propionibacterium isolates; details: 15 isolates
Description: Inoculum from a representative panel of bacterial strains associated with acne, such as P. acnes, P. avidum, P. granulosum, and Staphylococcus epidermis was prepared by suspending approximately 5-10 isolated bacterial colonies in pre-reduced MicroScan® Inoculum Water (Dade Behring, Deerfield, Ill.), and growing the bacterial suspension to log phase (approximately 48 hrs). An inoculum of between 1-5×10^6/mL was achieved by adding 100 μL of the suspension to 25 mL Brain Heart Infusion Broth (BHI) (Anaerobe Systems, Morgan Hill, Calif.).
Control tubes containing only water or formulation buffer were prepared for each isolate. Initial growth controls were determined by removing 10 μL from the water control tube and diluting it by 100 fold. From this dilution, 10 μL was used for inoculation and for spreading over the surface onto Laked Blood Agar (LBA) (Anaerobe Systems, Morgan Hill, Calif.) plates. The tubes and plates were incubated in an anaerobic atmosphere at 37° C. for 48 h. […] MBC50 and 90 values represent where 50 and 90%, respectively, of the tested strain's MBC values are equal to or less than the indicated concentration.

[3] = Stability in aqueous solution as indicated by biological activity; format: physicochemical; details: 4° C.
Description: In additional studies, a variety of formulations of XMP.629 were tested for stability under various temperatures, such as 25° C., 40° C., and 50° C., and at various time points, such as 0.5, 1, and 2 months.

[4] = test system: P. acnes strain ATCC 6919; assay: Kill curves / kill kinetics; format: cell-based, Propionibacterium acnes
Description: Kill curves were generated by incubating P. acnes strain ATCC 6919 with formulation buffer solutions of XMP.629 or other antibiotics at concentrations of […]. Samples were removed and plated at the indicated time periods. After incubation, colonies were counted and the kill kinetics determined for each drug.
For example, at a higher concentration of 4 μg/mL, a rapid reduction of viable cells in 8 hours to undetectable levels was observed. […] In additional kill curve studies against P. acnes, XMP.629 was bactericidal within 6 hours of exposure.

[5] = test system: polychromatic erythrocyte (PCE) cells in mouse bone marrow; assay: Mouse bone marrow micronucleus assay; format: in vivo, Crl:CD-1(ICR) BR mouse
Description: XMP.629 was next evaluated for in vivo clastogenic activity and/or disruption of mitotic apparatus by detecting micronuclei in polychromatic erythrocyte (PCE) cells in Crl:CD-1®(ICR) BR mouse bone marrow. The assay design was based on OECD Guideline 474, updated and adopted Jul. 21, 1997. In this micronucleus assay, XMP.629 was formulated in 10 mM sodium acetate buffer (pH 6.0) and dosed by intraperitoneal injection to six males per dose level at each scheduled harvest timepoint. The dose levels were 2, 4, or 8 mg/kg. Five animals dosed with XMP.629 at 2 or 4 mg/kg and five animals dosed with a positive control were euthanized approximately 24 hours after dosing for extraction of the bone marrow. Five animals per harvest timepoint dosed with XMP.629 at 8 mg/kg and five animals per harvest timepoint dosed with the vehicle control article were euthanized approximately 24 or 48 hours after dosing for extraction of the bone marrow. This micronucleus test can serve as a rapid screen for compounds which interfere with normal mitotic cell division (Schmid, 1975, Mutat. Res. 31: 9-15; Heddle et al., 1983, Mutat. Res. 123: 61-118; Heddle et al., 1991, Env. And Mol. Mutagen. 18: 277-291). At least 2000 PCEs per animal were analyzed for the frequency of micronuclei. Cytotoxicity was assessed by scoring the number of PCEs and normochromatic erythrocytes (NCEs) in at least the first 500 erythrocytes for each avenal. […] Therefore, XMP.629 was determined to be negative in the mouse bone marrow micronucleus assay.

[6] = Formulation Buffer Solvent, Study 1
[7] = Formulation Buffer Solvent, Study 2

CC(C)C[C@@H](NC(=O)[C@H](N)CCCCN)C(=O)N[C@H](Cc1ccccc1)C(=O)N[C@H](CCCNC(=N)N)C(=O)N[C@H](Cc1cccc2ccccc12)C(=O)N[C@H](CCC(N)=O)C(=O)N[C@H](C)C(=O)N[C@H](CCCCN)C(=O)N[C@H](Cc1cccc2ccccc12)C(N)=O [XMP.629, NH2-lys-leu-phe-arg-(3-(1-naphthyl)-ala)-gln-ala-lys-(3-(1-naphthyl)-ala)-CONH2] (H-[dK][dL][dF][dR][d1Nal][dQ][dA][dK][d1Nal]-NH2)
Minimum Inhibitory Concentrations (Enterococcus hirae): 2.00 µg/mL | skin sensitization, overall ([1]; 10 mM sodium acetate solution, topical patch challenge): weak skin sensitizing response | Dermal irritation scores ([1]; doses of 8 mg/mL): one or higher | highest non-irritating dose ([1]; induction phase tests): 4 mg/mL | challenge phase score ([1]; topical patch 4 mg/mL): did not score higher than one | MBC GeoMean Values [2, 6]: 1.2 mg/L (≈ 0.935 µM) | MIC GeoMean Values [2, 6]: 0.7 mg/L (≈ 0.545 µM) | MBC GeoMean Values [2, 7]: 1.10 mg/L (≈ 0.857 µM) | MIC GeoMean Values [2, 7]: 0.7 mg/L (≈ 0.545 µM) | MBC GeoMean Values ([2]; Water Solvent, Study 1): 2.41 mg/L (≈ 1.88 µM) | MIC GeoMean Values ([2]; Water Solvent, Study 1): 1.7 mg/L (≈ 1.32 µM) | MBC GeoMean Values ([2]; Water Solvent, Study 2): 1.9 mg/L (≈ 1.48 µM) | MIC GeoMean Values ([2]; Water Solvent, Study 2): 1.7 mg/L (≈ 1.32 µM) | stable in aqueous solution as indicated by biological activity [3]: greater than 6 months | time to reduction of viable cells to undetectable levels ([4]; 4 μg/mL): 8 h | exposure time until bactericidal ([4]; additional kill curve studies against P. acnes): ≤ 6 h | culture at 19 hours ([4]; all concentrations tested): no detected organisms | contact time to kill the microorganisms ([4]; depending on dose): up to 10 hours | Minimum Inhibitory Concentrations (Pseudomonas aeruginosa; Pseudomonas aeruginosa 9027): 8.00 µg/mL | Minimum Inhibitory Concentrations (Pseudomonas aeruginosa; Pseudomonas aeruginosa 19660): 8.00 µg/mL | Minimum Inhibitory Concentrations (Pseudomonas aeruginosa; Pseudomonas aeruginosa 27853): 4.00 µg/mL | Minimum Inhibitory Concentrations (Pseudomonas aeruginosa; Pseudomonas aeruginosa XS-65 (MDR)): 8.00 µg/mL | mouse bone marrow micronucleus assay result ([5]; 2, 4, or 8 mg/kg intraperitoneal): negative | cytotoxicity to the bone marrow (PCE:NCE ratios) ([5]; any dose level tested): not cytotoxic to the bone marrow | signs of clinical toxicity ([5]; up to 8 mg/kg): did not induce any signs of clinical toxicity
